This passage reports Km and melting point results from US7230020B2, “11β-hydroxysteroid dehydrogenase inhibitors” (priority 2003, dated 2007).

The target of one series is T1, Human 11β HSD1 (Homo sapiens, UniProt P28845).
T1 construct: human hepatic microsomes were obtained from XenoTech, product H0610/Lot 0210078; tissue XenoTech H0610/Lot 0210078; host or cells: human liver (hepatic microsomes)
Briefly: biochemical. The class given is biochemical. As to conditions: Lineweaver-Burke plot, RIA detection, buffer 3, 10 μg/well microsomal protein, 30 min (FIG. 20); read-out: apparent Km. Here is the method:
Standard Operating Procedure for the 11β-Hydroxysteroid Dehydrogenase Type 1 cortisol Radioimmunoassay (11β HSD1 Cortisol RIA).
30 mM Tris-HCL, pH 7.2 containing 1 mM EDTA.
50 mM Tris-HCL, pH 8, containing 0.1 M NaCl and 0.1% gelatin.
Prepare 10 mM stock solutions in 100% DMSO at 100 times the required assay concentration. Dilute into assay buffer 1 in 25. Also dilute neat DMSO 1 in 25 into assay buffer for controls.
Dilute this 1 in 50 into assay buffer.
Prepare NADPH as a 1.8 mg/ml solution in assay buffer.
Mix these 3solutions 1:1:1 to make a solution of sufficient volume for 25 μl additions to each sample. Add 0.5 μCi tritiated cortisone per 25 μl and mix the solution well.
Dilute stock 20 mg/ml solution 1 in 100 with assay buffer.
Dilute stock antibody solution to 17 μg/ml in antibody binding buffer.
Make a 20 mg/ml solution in antibody binding buffer and chill on ice.
To a u-bottom polypropylene 96 well plate add: • 25 μl compound dilution or diluted DMSO to controls, NSB's and blanks • 10 μl 1 mM GA in DMSO (enzyme stop solution) to blanks • 25 μl substrate mixture to all samples • 50 μl diluted microsomes to all samples • Incubate plate for 30 min at 37° C. shaking p0 Add 10 μl enzyme stop solution to all wells except the blanks • Add 100 μl antibody solution to all wells except the NSB's, add antibody binding buffer to these wells • Incubate at 37° C. for 1 h • Chill plate on ice for 15 min • Add 50 μl/well charcoal solution and mix with an 8-channel pipette (4-5 aspirations) • Chill the plate on ice • Centrifuge at 4° C., 2000×g for 15 min • Transfer 100 μl supernatant into an Optiplate, also add 25 μl substrate mixture to 2 empty wells to indicate counting efficiency • Add 200 μl Microscint-40 to all wells and count on a Topcount Radioimmunoassay
The 11β HSD1 enzyme assay was carried out following the standard operating procedure described above in u-bottom polypropylene 96 well plates or 1.5 ml Eppendorf tubes as indicated for each experiment. Subsequent to stopping the enzyme reaction, 100 μl antibody prepared in buffer 3 unless otherwise indicated was added to test samples and 100 μl buffer 3 was added to the NSB samples. The samples were incubated for 1 hour at 37° C. and the chilled on ice for 15 mins. Dextran coated charcoal (50 μl/sample) prepared to the indicated concentration in buffer 3 was added and the samples were mixed (vortex for tubes and aspiration 5 times with an 8-channel pipette for 96 well plates) and chilled for a further 10 min. The samples were centrifuged at 2000×g for 15 min at 4° C. to pellet the charcoal. Aliquots of the supernatant (100 μl) were transferred to an Optiplate and counted on the Topcount in 150-200 μl Microscint 40. In some experiments, aliquots of supernatant were transferred to scintillation vials and counted on the Tricarb LSC in 5 ml Ultima Gold scintillant.

In series [1] the target is T2, human hepatic microsomal 11β HSD1 (Homo sapiens, UniProt P28845).
T2 construct: human hepatic microsomes were obtained from XenoTech, product H0610/Lot 0210078; tissue XenoTech H0610/Lot 0210078; host or cells: human liver (hepatic microsomes)
Type of series: biochemical. The following applies: Lineweaver-Burke plot, 10 μg microsomal protein, 30 min at 37° C., Buffer 1 (FIG. 6); read-out: apparent Km for cortisone.
Experimental: Assay of Human and Rat Hepatic Microsomal 11β-HSD1 Activity using a TLC Separation of Substrate from Product
The assay was carried out in Buffer 2 and the cortisone concentration used was 2 μM containing 0.5 μCi per incubation ^3H-cortisone. Rat and human hepatic microsomes were tested at concentrations ranging from 400 μg to 50 μg microsomal protein per incubation in a final incubation volume of 100 μl in glass tubes. Buffer was substituted for microsomal protein for blanks. Samples were incubated for 1 h in a shaking water bath at 37° C. and the assay was stopped by the addition of 1 ml ethyl acetate. To correct for recovery, 50 μl ^14C-cortisol (approximately 4000 DPM per tube) was added to the samples followed by 200 μl 0.05% CaCl2. […] The upper organic phase was removed into clean tubes and dried down. […] DPM were measured on a TriCarb liquid scintillation counter using a dual label programme. Recovery was determined from the DPM obtained in 50 μl ^14C-cortisol solution which was counted with the samples.
In the next test, the same assay method was followed except that only human hepatic microsomes were examined and the concentration range of these was from 3.7 μg per sample to 100 μg per sample. The samples were incubated for 60 min, 45 min, 30 min or 15 min in a shaking water bath at 37° C. and were stopped, extracted and the substrate and product were separated as detailed above. […]

SMILES strings stand for the structures.

T2 sequence (P28845 whole entry): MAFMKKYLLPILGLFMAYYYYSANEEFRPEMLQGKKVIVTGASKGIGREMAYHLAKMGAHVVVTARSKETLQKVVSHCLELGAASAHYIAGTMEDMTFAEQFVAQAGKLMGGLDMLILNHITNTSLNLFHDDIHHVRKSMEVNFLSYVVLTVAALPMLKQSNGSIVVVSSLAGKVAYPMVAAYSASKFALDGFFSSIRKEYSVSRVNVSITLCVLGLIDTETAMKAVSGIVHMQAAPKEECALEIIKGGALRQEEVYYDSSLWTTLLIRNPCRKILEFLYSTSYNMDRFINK
T1 sequence (P28845 whole entry): as above

Turning to `C[C@]12CCC(=O)C=C1CC[C@@H]1[C@@H]2C(=O)C[C@@]2(C)[C@H]1CC[C@]2(O)C(=O)CO` [cortisone, Cortisone], the Km at Human 11β HSD1 came out at 0.7 µM; in series [1] it was 0.66 µM.
For `COc1cccc(C(=O)Nc2ccc(C(=O)c3ccccc3)cc2)c1`, the melting point fell in the range of 139 to 141 °C.
The same measure, in the same setting: the same measure for `CC1Nc2ccc(NC(=O)c3ccc(-c4ccccc4)cc3)cc2N1C` (centres unmarked): 270 to 270.3 °C; for `CCCc1ccc(C(=O)Nc2ccc(C(C)=O)cc2)cc1`: 174 to 176 °C; for `COc1ccc(C(=O)Nc2ccc(C(C)=O)cc2)cc1`: 222 to 223 °C.
The same measure, in the same setting: next, `O=C(Nc1ccc2c(c1)CCC2=O)c1ccc(-c2ccccc2)cc1`: 217 to 219 °C.
The same measure, in the same setting: the same measure for `CCCc1ccc(C(=O)Nc2ccc3sc(C)nc3c2)cc1`: 148 to 149 °C.
The molecule `CCCc1ccc(C(=O)NCCc2cccs2)cc1` displayed a melting point of 97 to 99 °C.
Molecule `Cc1nc2cc(NC(=O)c3ccc(Cl)cc3Cl)ccc2n1C` came in with a melting point of 275 to 277 °C.
Same read-out and setting: the same measure for `Cc1nc2c(Cl)c(NC(=O)c3cc(Cl)ccc3Cl)ccc2s1`: 175 °C; for `CCCc1ccc(C(=O)Nc2ccc3sc(C)nc3c2Cl)cc1`: 184 °C; for `COc1ccc(C(=O)Nc2ccc3c(c2)CCCC3=O)cc1`: 163 to 166 °C.
Consider `COc1cccc(C(=O)Nc2ccc3c(c2)CCCC3=O)c1`, for which the melting point lay in the range of 142 to 143 °C.
The same measure, in the same setting: next, `Cc1cnc2cc(NS(=O)(=O)c3cccc(Cl)c3C)ccc2n1`: 163 to 164 °C; `O=C(c1ccccc1)c1ccc(NC(=O)c2cc(Cl)ccc2Cl)cc1`: 150 to 153 °C; `O=C(Nc1ccc2c(c1)CCC2=O)c1cc(Cl)ccc1Cl`: 218 to 221 °C.
The same measure, in the same setting: the same measure for `CCCc1ccc(S(=O)(=O)Nc2ccc(OC)nc2)cc1`: 93 to 94 °C; for `O=C(NCCc1cccs1)c1cc(Cl)ccc1Cl`: 99 to 100 °C.
On the same count and under the same terms, next, `COc1ccc(CC(=O)Nc2ccc3sc(C)nc3c2Cl)cc1`: 173 to 174 °C; `CCCc1ccc(C(=O)Nc2ccc3c(c2)nc(C)n3C)cc1`: 214 to 218 °C; `Cc1nc2c(Cl)c(NC(=O)Cc3ccc(Cl)cc3)ccc2s1`: 227 to 229 °C.
Take `CC1Nc2cc(NC(=O)c3ccc(-c4ccccc4)cc3)ccc2N1C` (centres unmarked): the melting point was in the range of 272 to 274 °C.
The same measure, in the same setting: the same measure for `O=C(Nc1ccc(C(=O)c2ccccc2)cc1)c1ccc(-c2ccccc2)cc1`: 212 to 213 °C; for `O=C(Nc1ccc2c(c1)CCCC2=O)c1cc(Cl)cc(Cl)c1`: 226 to 228 °C.
Still for that read-out and setting: the same measure for `COc1ccc(C(=O)Nc2ccc(C(=O)c3ccccc3)cc2)cc1`: 171 to 174 °C; for `O=C(NCCc1cccs1)c1ccc(-c2ccccc2)cc1`: 164 to 166 °C; for `CCCc1ccc(C(=O)Nc2ccc3c(c2)CCC3=O)cc1`: 181 to 184 °C.
Still for that read-out and setting: next, `COc1cccc(C(=O)Nc2ccc(C(C)=O)cc2)c1`: 152 to 154 °C; `Cc1nc2cc(N(C)C(=O)c3ccc(Cl)cc3Cl)ccc2n1C`: 245 to 247 °C; `CCCc1ccc(S(=O)(=O)NCc2ccccn2)cc1`: 109 °C.
On to `Cc1nc2c(Cl)c(NC(=O)Cc3ccc(Cl)cc3Cl)ccc2s1`, for which the melting point lay within 257 to 258 °C.
